According to patent US9259433B2, “Synergistic antiviral compositions comprising a viral attachment inhibitor, an integration inhibitor, and a proviral transcription inhibitor, and their use” (priority 2007, dated 2016):
Several values for one entry are separate records, joined by “and”; a condition that tells them apart may be missing. Identical values can stand only once. Like-named read-outs stand apart in the source and are kept apart here.

Legend:
HIV = HIV entry in H9 cells; format: cell-based; conditions: compound by itself
Text: (§1) a. Salvia genus of Labiaceae family contains approximately 1000 species. 78 of these are distributed in different regions in China. […] An INi search was established based on an assay-guided purification procedure utilizing different concentrations of methanol, propanol, a two-layer extraction system (low salt water/butanol), and a high resolution inverted phase HPLC (Sperisorb OD S-2).

HIV-1 integrase = HIV-1 integrase (Human immunodeficiency virus type 1 group M subtype B, UniProt P04585); test: HIV-1 integrase catalytic activity of 3'-joining to the target DNA; format: biochemical
Text: as §1

[1] = test system: HIV-1RTMF (AZT-resistant virus); test: HIV replication in infected H9 cells, HIV/p24 monoclonal antibody assay; format: cell-based
Method: (§2) The inhibitory effect of M522 and M532 against HIV replication was further examined using 5 different strains of HIV-1, drug resistant and primary isolates in the presence of a variety of drug concentrations in infected H9 cells.
(§3) A series of drug concentrations ranging from 1.25 μg/ml to 160 μg/ml were used for testing the cytotoxicity of M522 and M532 in H9 cells, using the MTT assay to determine the viability of H9 cells in culture.

reverse transcriptase = target: T1, reverse transcriptase (Human immunodeficiency virus type 1 group M subtype B, UniProt P04585); test: Reverse transcriptase activity and viral DNA levels in infected cells; format: cell-based, HIV
T1 construct: endogenous in cells; host or cells: HIV-infected cells (H9 cells named in the same paragraph)
Text: as §1

HIV-1IIIBA17 variant = test: HIV replication in infected H9 cells, HIV/p24 monoclonal antibody assay; format: cell-based; conditions: Human immunodeficiency virus 1, H9
Text: as §2

HIV-1MN = test: as above; format: cell-based; conditions: Human immunodeficiency virus 1
Text: as §2

[2] = test system: HIV-1L1OR/M461/L63P.V82T/184V (protease inhibitor resistant virus); test: as above; format: cell-based; conditions: Human immunodeficiency virus 1, H9
Text: as §2

HIV-1IIIB = test: as above; format: cell-based; conditions: Human immunodeficiency virus 1
Text: as §2

HIV-1RTMF = test: Drug combination study in H9 cells infected with HIV-1RTMF, p24 assay; format: cell-based
Text: We tested drug combinations against two different cells infected with laboratory strain of HIV-1 RTMF. For these drug combinational studies, both the H9 cells and human PBMC have been used. We first tested how our inhibitors affect one specific strain of HIV which is resistant to drug against RT (HIV-1RTMF). Briefly H9 (1×10^5/ml) were infected with HIV-1RTMF strain with a multiplicity of infection of 0.1. These cells were further tested with three drugs, M522, Gen-1 and G4N, either in combination or separately (8, 10, 21B). After 4-day incubation at 37° C., H9 cells were subcultured with fresh culture medium containing appropriate concentrations 0, 1.25, 2.5, 5, 10, 20, 40 and 80 μM of each of the drugs, or of a combination of all three of the drugs, each at the indicated concentration. The inhibition for HIV-1 by these combinations of drugs was examined using p24 assay after 8 days.
(§4) Similarly, PBMC cells were isolated from a healthy blood sample and these cells were stimulated by PHA and IL-2. PBMC (5×10^6/ml) were infected with HIV-1RTMF. The cells were treated with three combinations of drugs, M522, Gen-1 and G4N. Fresh media and drugs were added after 4 days with drug concentrations 0, 1.25, 2.5, 5, 10, 20, 40 and 80 μM. The inhibition for HIV-1 by these combinations of drugs was also examined by using p24 assay after 8 days. […] In comparison, cytotoxicity for the three drugs combined to H9 cells was also analyzed using an MTT assay.

H9 cells = format: cell-based; conditions: human, 192 h
Method: as §3, with “culture. […] In fact, the drug-protected, HIV-infected H9 cells appeared to be morphologically identical to the uninfected control cells (6).” for “culture.”
as §4

HIV-1 [3] = test: Acute HIV-1 infection of H9 cells; format: cell-based; conditions: Human immunodeficiency virus 1
Text: as §1

[4] = target: deletion mutant HIV-1 integrase (IN^50-212) (Human immunodeficiency virus type 1 group M subtype B, UniProt P04585); test: Disintegration assay; format: biochemical; conditions: IN^50-212 core domain; equal efficacy with wild type
Method: (§5) To determine whether M522 and M532 are acting against the catalytic core domain specifically, disintegration assay was tested using deletion mutant IN containing only the core domain of HIV integrase. Such deletion mutant is defective for normal integration, but it is capable of catalyzing a reversal of the forward reaction, termed “disintegration”. The disintegration reaction can be assayed by using a deletion mutant HIV-1 integrase (IN^50-212) which lacks both the amino terminal zinc binding and the carboxyl terminal DNA binding domains but remains active in this assay, whereas such truncated IN loses activity in the 3′-processing and joining (strand transfer) assays. So, disintegration assay can be used to probe the site of drug-enzyme binding.

[5] = target: wild type HIV-1 integrase (Human immunodeficiency virus type 1 group M subtype B, UniProt P04585); test: Disintegration assay; format: biochemical; conditions: equal efficacy with deletion mutant
Method: as §5

HSV-2 = test: Mouse vaginal model of HSV-2 infection; format: in vivo, female CF-1 mice
Text: P4N was also found to be quite effective.

[6] = test system: acyclovir-resistant strains of HSV-1; test: Inhibition of acyclovir-resistant strains of HSV-1; format: cell-based
Text: Because the inhibitory mechanism of this class of compounds is completely distinct from the antiviral mechanism of nucleoside analogue agents, there is little possibility of cross-resistance between these two classes of drugs.

[7] = test system: HIV Sp1 enhancer sequence; test: Binding to Sp1 enhancer sequence by ethidium displacement; conditions: excitation 517 nm, emission 596 nm
Text: The mechanism underlying the antiviral action for NDGA derivatives was largely unknown before 1995. In 1995, Huang's group first reported a molecular study on 3′-O-methyl NDGA (FIG. 11, Mal 4)(15) isolated from creosote bush (Larrea tridentate) (16,3). […] NDGA derivatives interfere with the binding of transcription factor Sp1 to the promoter of the HIV proviral template. The target of Mal.4 is mapped to nucleotides −87 to −40, the Sp1 binding sites of the HIV long terminal repeat (LTR). […] However, large preparations of such NDGA derivatives from plant sources are labor intensive and costly. In anticipation of the possible clinical use of lignans in controlling Sp1-regulated viral and tumor growth in humans, nine different methylated NDGAs and several water soluble NDGA derivatives were synthesized chemically in large quantities with low cost (17, 18, 26, FIG. 11). Unsubstituted NDGA was used as the parent substrate. […]

[8] = Topical toxicity in guinea pigs; format: in vivo
HSV-1 = test: Dorsal cutaneous guinea pig model of HSV-1 infection; format: in vivo
Method: M4N and G4N were tested for their abilities to prevent HSV-1 infection in two animal model systems. The dorsal cutaneous guinea pig model system is a well-established model for HSV-1 infection that has been used in several studies to comparatively assess the potential efficacy of different topical formulations for treatment of herpes labialis. Straten M V, Carrasco D, Lee P, Tyring S K, Arch. Dermatol 137, 1232-1235 2001.

[9] = mouse, in vivo
Text: The efficacies of M4N and G4N against HSV-2 in a mouse vaginal model system were also examined. Progestin-treated female CF-1 mice (10 per group) were infected with HSV-2 in the absence or presence of G4N (in PBS), P4N (in PBS), or M4N in Vaseline (23). At the end of three days, the vaginal lavages were collected from the washings of the vagina regions. The status of the vaginal HSV-2 infection and replication were examined by their cytopathic effects on cultured human foreskin fibroblast cells. Monitoring and scoring were carried out by three persons independently.

HIV-1 [10] = conditions: read-out: inhibited HIV replication (IC90); FIG. 5
HIV-1 [11] = test system: HIV-1

## O=C(/C=C/c1ccc(O)c2c1[C@H](C(=O)O)[C@@H](c1ccc(O)c(O)c1)O2)O[C@H](Cc1ccc(O)c(O)c1)C(=O)O [M522, lithospermic acid]
HIV
  prevention of HIV entry: Neither M522 nor M532 by itself prevents HIV entry
HIV-1 integrase
  IC50: 0.48 µM
[1]; H9 cells infected with HIV-1RTMF in the presence of drug
  syncytia formation: syncytia formation was prevented
[1]; Human immunodeficiency virus 1, H9
  IC50: 2.5 µg/mL and 4.6 µM
Reverse transcriptase; following drug treatment
  levels of intracellular strong stop and full-length viral DNA: remained unchanged
Reverse transcriptase; infected cells
  inhibition of reverse transcriptase activity: no inhibition of reverse transcriptase activity
HIV-1IIIBA17 variant
  IC50: 1.1 µg/mL and 2 µM
HIV-1MN
  IC50: 16.7 µM and 9 µg/mL
[2]
  IC50: 6 µg/mL and 11.1 µM
HIV-1IIIB
  IC50: 11 µg/mL and 20.4 µM
HIV-1RTMF; Human immunodeficiency virus 1, H9, 192 h
  IC50: 4 to 6 µM
H9 cells
  CC100 (highest concentration tested, cells remained viable): 160 µg/mL
HIV-1 [3]
  IC50: 2 µM
[4]
  inhibition of disintegration: inhibited
[5]
  inhibition of disintegration: inhibited

## C[C@H](Cc1ccc(OC(=O)CN(C)C)c(OC(=O)CN(C)C)c1)[C@@H](C)Cc1ccc(OC(=O)CN(C)C)c(OC(=O)CN(C)C)c1 [G4N, meso-1,4-bis[3,4-(dimethylaminoacetoxy)phenyl]-(2R,3S)dimethylbutane]
HSV-2; 0.1 mM
  average score: 0.5
  infection: ~12.5 % infection
HSV-2; 0.1 mM, 10 mice per group, day 3 vaginal lavage
  animals infected: 1 out of 10
HSV-2; 10 mM, 10 mice per group
  animals infected: no infections detected
HSV-2; 100 mM
  animals infected: no infections detected
[6]
  efficacy against acyclovir-resistant strains: no cross-resistance
[7]
  apparent equilibrium binding constant (Kapp): 3e+06 M⁻¹
HIV-1RTMF; H9 cells, p24 assay after 8 days, for the combination, this concentration of each drug, read-out: IC50
  IC50: 18 µM
[8]; highest soluble concentrations (150 mM)
  toxicity or dermal irritation: no evidence of toxicity or dermal irritation
[8]; topical application for six days, up to 50 mM
  toxicity: no evidence of toxicity
HSV-1; 5 μM
  response to treatment (visual assessment): semi-effective
HSV-1; 10 μM
  response to treatment (visual assessment): more effective
HSV-1; 150 μM
  response to treatment (visual assessment): extremely effective
HSV-1; guinea pig, in vivo
  HSV-1 induced cutaneous lesion formation and viral shedding: effectively inhibited

## COc1ccc(C[C@@H](C)[C@@H](C)Cc2ccc(OC)c(OC)c2)cc1OC [M4N, tetra-O-methyl NDGA]
HSV-2; 20 mg/ml in Vaseline
  infection in the other 4 mice: very little infection
  mice fully infected, out of 8: 4
  score of the fully infected mice: 3-4
[6]
  efficacy against acyclovir-resistant strains: retains complete efficacy
[9]
  toxicity: no toxicity

## acetylated Tieghemelin [oAc-Gen-1]
HIV-1 [10]
  IC90: ~10 µM
HIV-1 [11]; preincubation of drug with CD4+ cells
  HIV-1 entry and infection in CD4+ cells: did not prevent HIV-1 entry and infection
HIV-1 [11]; preincubation of drug with HIV-1 virus
  infectivity of HIV-1: totally inactivated the infectivity
